# Test results as given in patent US20140154264A1, “COMPOSITIONS AND METHODS FOR TREATING CANCER AND DISEASES AND CONDITIONS RESPONSIVE TO CELL GROWTH INHIBITION” (THE REGENTS OF THE UNIVERSITY OF CALIFORNIA, priority 2011, published 2014).
# Read-outs that look alike come from different tables or passages of the source.
# What was measured:
# [1] = test system: FG and FG-β3 cells; experiment: tumor sphere formation assay; format: cell-based, human; settings: for effect of αvβ3 expression on drug resistance: in vitro, FG cells lacking vs expressing αvβ3
# Description: (n=3 independent experiments); as discussed in detail in Example 1, below.
# Therefore, we examined whether αvβ3 expression also promotes resistance to other growth factor inhibitors and/or cytotoxic agents.
# Immunoblot analysis of FG, FG-β3 and FG-β3 stably expressing non-silencing or RalB-specific ShRNA, grown in suspension and treated with erlotinib (0.5 μM). pTBK1 refers to phospho-S172 TBK1, p-p65 NF-κB refers to phospho-p65 NF-κB S276, pFAK refers to phospho-FAK Tyr 861. […] Error bars represent s.d. (n=3 independent experiments). *P<0.05, **P<0.001, NS=not significant. Immunoblot analysis showing NF-κB WT and S276D NF-κB FLAG transfection efficiency. (c) Tumor spheres formation assay of FG-β3 treating with non-silencing (shCTRL) or NF-κB-specific shRNA and exposed to erlotinib (0.5 μM). Error bars represent s.d. (n=3 independent experiments). *P<0.05, NS=not significant. (d) Dose response in FG-β3 cells treated with erlotinib (10 nM to 5 μM), lenalidomide (10 nM to 5 μM) or a combination of erlotinib (10 nM to 5 μM) and lenalidomide (1 μM). Error bars represent s.d. (n=3 independent experiments). *P<0.05, NS=not significant.
# Tumor spheres formation assays were performed essentially as described previously^17. Briefly, cells were seeded at 1000 to 2000 cells per well and grown for 12 days to 3 weeks. Cells were treated with vehicle (DMSO), erlotinib (10 nM to 5 μM), lapatinib (10 nM to 5 μM), gemcitabine (0.001 nM to 5 μM), OSI-906 (10 nM to 5 μM), lenalidomide (10 nM to 5 μM), or cisplatin (10 nM to 5 μM), diluted in DMSO. The media was replaced with fresh inhibitor every day for erlotinib, lapatinib, lenalidomide and 3 times a week for cisplatin and gemcitabine. Colonies were stained with crystal violet and scored with an Olympus SZH10 microscope. Survival curves were generated at least with five concentration points.
# [2] = test system: G2/M progression; experiment: G2/M progression after cilengitide treatment; format: cell-based
# [3] = biological target: avb3 (Homo sapiens, UniProt P05106+P06756); experiment: cell-free integrin binding assay
# avb3, sequence (P06756 31-889 limits assumed): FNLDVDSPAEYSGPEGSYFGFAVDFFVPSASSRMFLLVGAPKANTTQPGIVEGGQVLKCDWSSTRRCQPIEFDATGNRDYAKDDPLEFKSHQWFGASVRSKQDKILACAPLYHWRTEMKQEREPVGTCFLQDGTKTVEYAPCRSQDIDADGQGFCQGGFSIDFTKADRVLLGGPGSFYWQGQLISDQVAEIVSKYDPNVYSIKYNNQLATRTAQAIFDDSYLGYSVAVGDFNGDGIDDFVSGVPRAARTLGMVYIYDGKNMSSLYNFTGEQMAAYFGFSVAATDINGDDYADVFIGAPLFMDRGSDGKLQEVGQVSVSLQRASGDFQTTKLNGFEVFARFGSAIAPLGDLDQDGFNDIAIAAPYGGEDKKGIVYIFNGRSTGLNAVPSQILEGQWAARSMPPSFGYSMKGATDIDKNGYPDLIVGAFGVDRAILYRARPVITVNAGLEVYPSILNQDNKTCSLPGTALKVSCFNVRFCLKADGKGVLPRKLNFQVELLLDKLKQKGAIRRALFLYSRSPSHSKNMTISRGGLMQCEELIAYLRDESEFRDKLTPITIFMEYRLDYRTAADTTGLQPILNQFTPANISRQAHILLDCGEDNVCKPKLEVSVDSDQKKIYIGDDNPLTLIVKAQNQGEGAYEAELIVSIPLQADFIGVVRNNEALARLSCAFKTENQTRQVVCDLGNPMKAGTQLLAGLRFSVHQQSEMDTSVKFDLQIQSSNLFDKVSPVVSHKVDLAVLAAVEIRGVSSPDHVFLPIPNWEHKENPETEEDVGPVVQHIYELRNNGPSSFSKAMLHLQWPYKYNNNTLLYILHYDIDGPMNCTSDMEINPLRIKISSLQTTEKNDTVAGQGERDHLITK
# avb3, sequence (P06756 891-1048 limits assumed): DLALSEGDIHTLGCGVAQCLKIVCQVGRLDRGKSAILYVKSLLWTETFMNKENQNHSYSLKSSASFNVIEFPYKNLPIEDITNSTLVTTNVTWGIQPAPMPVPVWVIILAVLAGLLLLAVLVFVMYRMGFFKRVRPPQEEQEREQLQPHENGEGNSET
# avb3, sequence (P05106 27-788): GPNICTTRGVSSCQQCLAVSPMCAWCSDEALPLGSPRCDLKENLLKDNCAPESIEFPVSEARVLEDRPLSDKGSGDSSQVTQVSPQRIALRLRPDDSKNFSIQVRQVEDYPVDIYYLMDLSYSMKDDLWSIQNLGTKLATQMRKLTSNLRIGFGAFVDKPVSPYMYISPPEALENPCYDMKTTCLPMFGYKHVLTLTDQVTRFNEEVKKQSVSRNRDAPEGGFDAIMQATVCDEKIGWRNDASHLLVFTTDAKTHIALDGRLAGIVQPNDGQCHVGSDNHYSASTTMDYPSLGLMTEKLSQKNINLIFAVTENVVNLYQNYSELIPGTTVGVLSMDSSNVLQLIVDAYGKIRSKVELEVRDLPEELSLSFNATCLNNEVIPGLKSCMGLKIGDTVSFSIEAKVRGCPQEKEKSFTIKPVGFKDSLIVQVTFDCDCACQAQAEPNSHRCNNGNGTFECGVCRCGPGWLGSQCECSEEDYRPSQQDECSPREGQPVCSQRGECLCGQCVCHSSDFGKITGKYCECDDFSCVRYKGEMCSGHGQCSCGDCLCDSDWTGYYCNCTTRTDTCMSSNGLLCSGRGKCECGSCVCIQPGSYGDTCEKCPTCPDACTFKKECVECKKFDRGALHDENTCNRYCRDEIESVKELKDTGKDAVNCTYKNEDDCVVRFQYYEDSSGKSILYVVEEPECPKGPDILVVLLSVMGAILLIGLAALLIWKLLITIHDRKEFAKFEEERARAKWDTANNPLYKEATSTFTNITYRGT
# [4] = test system: orthotopic GBM tumors; experiment: orthotopic brain tumor mouse model; format: in vivo
# [5] = biological target: avb5 (Homo sapiens, UniProt P06756+P18084); experiment: cell-free integrin binding assay
# avb5, sequence (P06756 31-889 limits assumed): as the sequence (P06756 31-889 limits assumed) above
# avb5, sequence (P06756 891-1048 limits assumed): as the sequence (P06756 891-1048 limits assumed) above
# avb5, sequence (P18084 24-799): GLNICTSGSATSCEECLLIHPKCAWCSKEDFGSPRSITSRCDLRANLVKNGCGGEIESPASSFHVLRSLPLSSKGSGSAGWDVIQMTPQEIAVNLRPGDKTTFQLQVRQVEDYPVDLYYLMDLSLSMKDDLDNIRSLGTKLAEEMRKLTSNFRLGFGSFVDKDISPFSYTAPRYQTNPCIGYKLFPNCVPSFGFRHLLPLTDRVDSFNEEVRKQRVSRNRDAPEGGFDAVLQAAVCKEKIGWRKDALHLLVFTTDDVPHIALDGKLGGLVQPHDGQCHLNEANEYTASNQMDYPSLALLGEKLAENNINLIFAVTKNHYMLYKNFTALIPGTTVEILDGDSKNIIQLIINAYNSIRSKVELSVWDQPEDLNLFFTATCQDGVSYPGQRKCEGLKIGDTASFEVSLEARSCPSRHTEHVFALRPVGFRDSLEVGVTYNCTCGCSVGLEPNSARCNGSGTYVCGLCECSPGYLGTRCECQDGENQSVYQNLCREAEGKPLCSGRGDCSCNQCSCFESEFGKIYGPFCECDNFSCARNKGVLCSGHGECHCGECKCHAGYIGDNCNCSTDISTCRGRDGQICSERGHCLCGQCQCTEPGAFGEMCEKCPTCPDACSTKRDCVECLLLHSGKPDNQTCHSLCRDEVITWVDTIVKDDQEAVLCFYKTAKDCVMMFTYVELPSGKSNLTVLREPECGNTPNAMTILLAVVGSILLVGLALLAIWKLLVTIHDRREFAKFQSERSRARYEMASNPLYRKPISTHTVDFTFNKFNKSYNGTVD
# [6] = test system: C-RAF Ser338; experiment: C-RAF Ser338 phosphorylation in human glioblastoma cell lines; format: cell-based
# Source text: (§1) These events are associated with reduced cell proliferation in vitro and tumor regression in vivo.
# [7] = test system: patients with cancer; experiment: cancer patient studies; format: in vivo, human; settings: various patients with cancer
# [8] = test system: C-RAF S338 phosphorylation; experiment: C-RAF S338 phosphorylation in brain tumors; format: in vivo; settings: mouse orthotopic model
# Source text: as §1
# [9] = test system: angiogenesis and tumor growth; experiment: angiogenesis and tumor growth in vivo
# [10] = test system: H441 human lung adenocarcinoma orthotopic tumors; experiment: orthotopic lung cancer xenograft model; format: in vivo, mice; settings: systemic erlotinib for 7-8 weeks
# Source text: (§2) The longer cells were exposed to erlotinib the greater the expression level of αvβ3 was observed, FIG. 26b. […] Thus, exposure of histologically distinct tumor cells in vitro or in vivo to EGFR inhibitors selects for a tumor cell population expressing high levels of αvβ3.
# (a) Flow cytometric quantification of cell surface markers after 3 weeks treatment with erlotinib (pancreatic and colon cancer cells) or lapatinib (breast cancer cells). (b) Flow cytometric analysis of αvβ3 expression in FG and Miapaca-2 cells following erlotinib. Error bars represent s.d. (n=3 independent experiments). […] Bottom, Integrin αvβ3 expression was quantified as ratio of integrin αvβ3 pixel area over nuclei pixel area using Metamorph (*P=0.049 using Mann-Whitney U test). […] Results are expressed as % tumor weight compared to vehicle control. *P<0.05.
# Immunostaining was performed according to the manufacturer's recommendations (Vector Labs) on […] sections of paraffin-embedded tumors from the orthotopic xenograft pancreas and lung cancer mouse models^14 or from a metastasis tissue array purchased from US Biomax (MET961). […] Sections stained with integrin β3 and active Ral were scored by a H-score according to the staining intensity (SI) on a scale 0 to 3 within the whole tissue section.
# [11] = test system: PANC-1 cells; experiment: tumor sphere formation assay; format: cell-based, human; settings: αvβ3 knockdown vs control
# Source text: (§3) In all cases, β3 expressing tumor cells were intrinsically more resistant to EGFR blockade than β3-negative tumor cell lines (FIG. 26e).
# (a) Flow cytometric quantification of cell surface markers after 3 weeks treatment with erlotinib (pancreatic and colon cancer cells) or lapatinib (breast cancer cells). (b) Flow cytometric analysis of αvβ3 expression in FG and Miapaca-2 cells following erlotinib. Error bars represent s.d. (n=3 independent experiments). (c) Top, immunofluorescence staining of integrin αvβ3 in tissue specimens obtained from orthotopic pancreatic tumors treated with vehicle (n=3) or erlotinib (n=4). Scale bar, 50 μm. Bottom, Integrin αvβ3 expression was quantified as ratio of integrin αvβ3 pixel area over nuclei pixel area using Metamorph (*P=0.049 using Mann-Whitney U test). (d) Right, intensity (scale 0 to 3) of β3 expression in mouse orthotopic lung tumors treated with vehicle (n=8) or erlotinib (n=7). Left, immunohistochemical staining of β3. Scale bar, 100 μm. […] (f) Tumor sphere formation assay to establish a dose-response for erlotinib. Error bars represent s.d. (n=3 independent experiments). […] Results are expressed as % tumor weight compared to vehicle control. *P<0.05.
# Tumor spheres formation assays were performed essentially as described previously^17. […] Colonies were stained with crystal violet and scored with an Olympus SZH10 microscope.
# [12] = test system: phosphorylated TBK1; experiment: immunoblot analysis of cells grown in suspension and treated with erlotinib; format: cell-based, human; settings: erlotinib 0.5 μM
# Description: (§4) In addition, it has been shown that NF-κB signaling is essential for KRAS-driven tumor growth and resistance to EGFR blockade^27-29. This prompted us to ask whether αvβ3 could regulate NF-κB activity through RalB activation and thereby promote tumor cell resistance to EGFR targeted therapy. To test this, tumor cells expressing or lacking integrin αvβ3 and/or RalB were grown in the presence or absence of erlotinib and lysates of these cells were analyzed for activated downstream effectors of RalB. […] NF-κB activity was sufficient to account for EGFR inhibitor resistance since ectopically expressed a constitutively active NF-κB (S276D) in β3-negative FG pancreatic tumor cells^30 conferred resistance to EGFR inhibition, see FIG. 29b). […] Together, our studies describe a role for αvβ3 mediating resistance to EGFR inhibition via RalB activation and its downstream effector NF-κB, opening new avenues to target tumors that are resistant to EGFR targeted therapy, see FIG. 29e.
# (§5) Immunoblot analysis of FG, FG-β3 and FG-β3 stably expressing non-silencing or RalB-specific ShRNA, grown in suspension and treated with erlotinib (0.5 μM). pTBK1 refers to phospho-S172 TBK1, p-p65 NF-κB refers to phospho-p65 NF-κB S276, pFAK refers to phospho-FAK Tyr 861. Data are representative of three independent experiments. (b) Tumor spheres formation assay of FG cells ectopically expressing vector control, WT NF-κB FLAG tagged or constitutively active S276D NF-κB FLAG tagged constructs treated with erlotinib (0.5 μM). Error bars represent s.d. (n=3 independent experiments). *P<0.05, **P<0.001, NS=not significant. Immunoblot analysis showing NF-κB WT and S276D NF-κB FLAG transfection efficiency. (c) Tumor spheres formation assay of FG-β3 treating with non-silencing (shCTRL) or NF-κB-specific shRNA and exposed to erlotinib (0.5 μM). Error bars represent s.d. (n=3 independent experiments). *P<0.05, NS=not significant. (d) Dose response in FG-β3 cells treated with erlotinib (10 nM to 5 μM), lenalidomide (10 nM to 5 μM) or a combination of erlotinib (10 nM to 5 μM) and lenalidomide (1 μM). Error bars represent s.d. (n=3 independent experiments). *P<0.05, NS=not significant. (e) Model depicting the integrin αvβ3-mediated EGFR TKI resistance and conquering EGFR TKI resistance pathway and its downstream RalB and NF-κB effectors.
# (§6) Cells were lysed in either RIPA lysis buffer (50 mM Tris pH 7.4, 100 mM NaCL, 2 mM EDTA, […], 10% Triton, 0.1% SDS) or Triton lysis buffer (50 mM Tris pH 7.5, 150 mN NaCl, 1 mM EDTA, 5 mM MgCl2, 10% Glycerol, 1% Triton) supplemented with complete protease and phosphatase inhibitor mixtures (Roche) and centrifuged at 13,000 g for 10 min at 4° C. Protein concentration was determined by BCA assay. […]
# [13] = test system: phosphorylated NF-κB; experiment: as above; format: cell-based, human; settings: erlotinib 0.5 μM
# Description: as §4, §5, §6
# [14] = test system: orthotopic FG pancreatic tumors; experiment: orthotopic pancreas cancer xenograft model; format: in vivo, mice
# Source text: as §2, §3
# (a) Flow cytometric quantification of cell surface markers after 3 weeks treatment with erlotinib (pancreatic and colon cancer cells) or lapatinib (breast cancer cells). (b) Flow cytometric analysis of αvβ3 expression in FG and Miapaca-2 cells following erlotinib. Error bars represent s.d. (n=3 independent experiments). (c) Top, immunofluorescence staining of integrin αvβ3 in tissue specimens obtained from orthotopic pancreatic tumors treated with vehicle (n=3) or erlotinib (n=4). Scale bar, 50 μm. Bottom, Integrin αvβ3 expression was quantified as ratio of integrin αvβ3 pixel area over nuclei pixel area using Metamorph (*P=0.049 using Mann-Whitney U test). (d) Right, intensity (scale 0 to 3) of β3 expression in mouse orthotopic lung tumors treated with vehicle (n=8) or erlotinib (n=7). Left, immunohistochemical staining of β3. Scale bar, 100 μm. […] Results are expressed as % tumor weight compared to vehicle control. *P<0.05. […]
smiles,measurement,setting,value
N.N.[Cl][Pt][Cl] [cisplatin],effect of αvβ3 expression on drug resistance,[1],failed to protect cells
C[C@]1(O)C[C@@H](c2nc(-c3ccc4ccc(-c5ccccc5)nc4c3)c3c(N)nccn32)C1 [OSI-906],effect of αvβ3 expression on drug resistance,[1],induced resistance
CC(C)[C@H]1C(=O)N[C@@H](CCCN=C(N)N)C(=O)NCC(=O)N[C@@H](CC(=O)O)C(=O)N[C@H](Cc2ccccc2)C(=O)N1C [cilengitide],G2/M progression,[2],blocks G2/M progression
same,inhibition of ligand binding to integrin avb3,[3],inhibit ligand binding
same,inhibition of ligand binding to integrin avb3,[3]; listed as EMD 121974,potent inhibitor
same,orthotopic GBM tumor vascularization and growth,"[4]; CD31, Ki-67 and TUNEL staining",inhibits orthotopic GBM tumor vascularization and growth
same,tumor burden,[4]; GBM tumors implanted in the brain,decreases tumor burden
same,orthotopic GBM tumor burden,[4]; sub-optimal doses of cilengitide and radiation combined,synergize to reduce orthotopic GBM tumor burden
same,inhibition of ligand binding to integrin avb5,[5],inhibit ligand binding
same,inhibition of ligand binding to integrin avb5,[5]; listed as EMD 121974,potent inhibitor
same,activation/phosphorylation of C-RAF Ser338,[6],prevents the activation/phosphorylation of C-RAF Ser338
same,efficacy in cancer patients,[7],potentially efficacious in some patients
same,toxicity in cancer patients,[7],non-toxic
same,C-RAF S338 phosphorylation,[8],blocks C-RAF S338 phosphorylation
same,C-RAF S338 phosphorylation,[8]; listed as Cilengitide,prevents the activation/phosphorylation of C-RAF Ser338
same,angiogenesis and tumor growth in vivo,[9],inhibited angiogenesis and tumor growth
Nc1ccn([C@@H]2O[C@H](CO)[C@@H](O)C2(F)F)c(=O)n1 [gemcitabine],effect of αvβ3 expression on drug resistance,[1],failed to protect cells
C#Cc1cccc(Nc2ncnc3cc(OCCOC)c(OCCOC)cc23)c1 [erlotinib],integrin αvβ3 expression compared with vehicle-treated tumors,[10],qualitative increase
same,increase in tumor cell sensitivity on knockdown of αvβ3,[11],10 fold
same,levels of phosphorylated TBK1,[12]; αvβ3 negative cells,reduced levels
same,levels of phosphorylated TBK1,[12]; β3-positive cells,remained activated
same,levels of phosphorylated NF-κB,[13]; αvβ3 negative cells,reduced levels
same,levels of phosphorylated NF-κB,[13]; β3-positive cells,remained activated
same,effect of αvβ3 expression on drug resistance,[1],dramatically increased erlotinib resistance
same,erlotinib sensitivity under genetic or pharmacological inhibition of NF-κB,"[1]; β3-positive cells, FIG. 29d combination with lenalidomide (1 μM)",completely restored erlotinib sensitivity
same,increase in αvβ3 expression,[14]; four weeks of erlotinib treatment,10 fold
same,effect of ectopic expression of αvβ3 on drug resistance,[14]; orthotopic pancreatic tumors after systemic treatment,dramatically increased erlotinib resistance
